This note sets out measurements from US20260022142A1, “MACROCYCLIC IMMUNOMODULATORS” (Bristol-Myers Squibb Company, priority 2022, published 2026).

Each structure is given as a SMILES string. Bridge positions count the residues as written; N and C are the ends. Square brackets hold non-standard residues; d marks the D form. Peptide text beside a SMILES is read from it. * marks the point of attachment. ξ: configuration not given here. Bip = N[C@@H](Cc1ccc(-c2ccccc2)cc1)C(=O)O; Phe(3-Me) = Cc1cccc(C[C@H](N)C(=O)O)c1; Cha = N[C@@H](CC1CCCCC1)C(=O)O; Cit = NC(=O)NCCC[C@H](N)C(=O)O; Carboxymethyl = O=C(O)C*; Orn = NCCC[C@H](N)C(=O)O; Aun = NCCCCCCCCCCC(=O)O; Dab = NCC[C@H](N)C(=O)O; Dap = NC[C@H](N)C(=O)O; AEEA = NCCOCCOCC(=O)O; ξC = NC(CS)C(=O)O

T1 sequence (Q15116 25-288): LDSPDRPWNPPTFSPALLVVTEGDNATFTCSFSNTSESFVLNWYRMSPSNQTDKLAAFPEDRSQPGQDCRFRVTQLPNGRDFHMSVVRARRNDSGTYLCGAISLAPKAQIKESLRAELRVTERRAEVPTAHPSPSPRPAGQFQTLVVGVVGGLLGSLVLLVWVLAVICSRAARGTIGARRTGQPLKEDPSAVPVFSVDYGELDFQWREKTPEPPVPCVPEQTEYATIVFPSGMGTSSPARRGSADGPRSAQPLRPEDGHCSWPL

The assay addresses T1, PD-1/PD-L1 interaction (PE-labeled human PD-L1-Ig binding to Jurkat cell line over-expressing human PD-1) (Homo sapiens, UniProt Q15116).
T1 construct: expressed in transfected cells; host or cells: Jurkat
Briefly: Jurkat-PD-1 Cell Binding High-Content Screening Assay (CBA). The format is cell-based. The note with it: Jurkat cell line over-expressing human PD-1; PE-labeled PD-L1-Ig 20 nM final; read-out: Jurkat hPD1-PDL1 IC50. In outline:
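First, compound is added to PD-1-expressing Jurkat cells in serum-containing DMEM and left 2 h at 37° C. Next, PE-conjugated PD-L1-Ig is introduced at 20 nM final concentration for 1 hour. Finally, cells are fixed in 4% paraformaldehyde with Hoechst 33342, washed and imaged.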
Consider `Cc1cccc(C[C@@H]2NC(=O)[C@H](CC(=O)O)NC(=O)[C@H](Cc3ccc(OCC(=O)O)cc3)NC(=O)[C@H](CN)NC(=O)CSC[C@@H](C(=O)N[C@@H](CCN)C(=O)NCCOCCOCC(=O)NCCCCCCCCCCC(=O)O)NC(=O)[C@H](CN)NC(=O)[C@H](C(C)C)NC(=O)[C@H](CC3CCCCC3)NC(=O)[C@H](CCN)NC(=O)[C@@H](CC(C)C)NC(=O)[C@H](CCCN)NC(=O)[C@H](CCCNC(N)=O)NC(=O)[C@H](Cc3ccc(-c4ccccc4)cc3)NC(=O)[C@H](C(C)C)NC2=O)c1` [Compound 2633] ({CH2CO}-[Dap]Y(Carboxymethyl)D[Phe(3-Me)]V[Bip][Cit][Orn][dL][Dab][Cha]V[Dap]C[Dab][AEEA][Aun]-OH; thioether N-14), for which the half-inhibitory concentration (IC50) came out at 16.4 nM. Take `CC[C@H](C)[C@@H]1NC(=O)[C@H](Cc2ccc(-c3ccccc3)cc2)NC(=O)[C@H](C(C)C)NC(=O)[C@H](Cc2cccc(C)c2)NC(=O)[C@H](CC(=O)O)NC(=O)[C@H](Cc2ccc(OCC(=O)O)cc2)NC(=O)[C@H](CN)NC(=O)CSC[C@@H](C(=O)N[C@@H](CCN)C(=O)NCCOCCOCC(=O)NCCCCCCCCCCC(=O)O)NC(=O)[C@H](CN)NC(=O)[C@H](C(C)C)NC(=O)[C@H](CC2CCCCC2)NC(=O)[C@H](CCN)NC(=O)[C@@H](CC(C)C)NC(=O)[C@H](CCCN)NC1=O` [Compound 2634] ({CH2CO}-[Dap]Y(Carboxymethyl)D[Phe(3-Me)]V[Bip]I[Orn][dL][Dab][Cha]V[Dap]C[Dab][AEEA][Aun]-OH; thioether N-14): the 50% inhibitory concentration (IC50) amounted to 14.1 nM. As for `Cc1cccc(C[C@@H]2NC(=O)[C@H](CC(=O)O)NC(=O)[C@H](Cc3ccc(OCC(=O)O)cc3)NC(=O)[C@H](CN)NC(=O)CSC[C@@H](C(=O)N[C@@H](CCN)C(=O)NCCOCCOCC(=O)NCCCCCCCCCCC(=O)O)NC(=O)[C@H](CCCNC(=N)N)NC(=O)[C@H](C(C)C)NC(=O)[C@H](CC3CCCCC3)NC(=O)[C@H](CCN)NC(=O)[C@@H](CC(C)C)NC(=O)[C@H](CCCN)NC(=O)[C@H](CCCNC(N)=O)NC(=O)[C@H](Cc3ccc(-c4ccccc4)cc3)NC(=O)[C@H](C(C)C)NC2=O)c1` [Compound 2635] ({CH2CO}-[Dap]Y(Carboxymethyl)D[Phe(3-Me)]V[Bip][Cit][Orn][dL][Dab][Cha]VRC[Dab][AEEA][Aun]-OH; thioether N-14), the IC50 is 10.3 nM. As for `CC[C@H](C)[C@@H]1NC(=O)[C@H](Cc2ccc(-c3ccccc3)cc2)NC(=O)[C@H](C(C)C)NC(=O)[C@H](Cc2cccc(C)c2)NC(=O)[C@H](CC(=O)O)NC(=O)[C@H](Cc2ccc(OCC(=O)O)cc2)NC(=O)[C@H](CN)NC(=O)CSC[C@@H](C(=O)N[C@@H](CCN)C(=O)NCCOCCOCC(=O)NCCCCCCCCCCC(=O)O)NC(=O)[C@H](CCCNC(=N)N)NC(=O)[C@H](C(C)C)NC(=O)[C@H](CC2CCCCC2)NC(=O)[C@H](CCN)NC(=O)[C@@H](CC(C)C)NC(=O)[C@H](CCCN)NC1=O` [Compound 2636] ({CH2CO}-[Dap]Y(Carboxymethyl)D[Phe(3-Me)]V[Bip]I[Orn][dL][Dab][Cha]VRC[Dab][AEEA][Aun]-OH; thioether N-14), the IC50 stood at 22.5 nM. In the case of `Cc1cccc(C[C@@H]2NC(=O)[C@H](CC(=O)O)NC(=O)[C@H](Cc3ccc(OCC(=O)O)cc3)NC(=O)[C@H](CN)NC(=O)CSC[C@@H](C(=O)N[C@@H](CCCCN)C(=O)NCCCCCCCCCCC(=O)O)NC(=O)[C@H](CN)NC(=O)[C@H](C(C)C)NC(=O)[C@H](CC3CCCCC3)NC(=O)[C@H](CCN)NC(=O)[C@@H](CC(C)C)NC(=O)[C@H](CCCN)NC(=O)[C@H](CCCNC(N)=O)NC(=O)[C@H](Cc3ccc(-c4ccccc4)cc3)NC(=O)[C@H](C(C)C)NC2=O)c1` [Compound 2637] ({CH2CO}-[Dap]Y(Carboxymethyl)D[Phe(3-Me)]V[Bip][Cit][Orn][dL][Dab][Cha]V[Dap]CK[Aun]-OH; thioether N-14), the IC50 is 15.5 nM. Take `CC[C@H](C)[C@@H]1NC(=O)[C@H](Cc2ccc(-c3ccccc3)cc2)NC(=O)[C@H](C(C)C)NC(=O)[C@H](Cc2cccc(C)c2)NC(=O)[C@H](CC(=O)O)NC(=O)[C@H](Cc2ccc(OCC(=O)O)cc2)NC(=O)[C@H](CN)NC(=O)CSC[C@@H](C(=O)N[C@@H](CCCCN)C(=O)NCCCCCCCCCCC(=O)O)NC(=O)[C@H](CN)NC(=O)[C@H](C(C)C)NC(=O)[C@H](CC2CCCCC2)NC(=O)[C@H](CCN)NC(=O)[C@@H](CC(C)C)NC(=O)[C@H](CCCN)NC1=O` [Compound 2638] ({CH2CO}-[Dap]Y(Carboxymethyl)D[Phe(3-Me)]V[Bip]I[Orn][dL][Dab][Cha]V[Dap]CK[Aun]-OH; thioether N-14): the concentration for half-maximal inhibition (IC50) is 19 nM. Then `CC[C@H](C)[C@@H]1NC(=O)[C@H](Cc2ccc(-c3ccccc3)cc2)NC(=O)[C@H](C(C)C)NC(=O)[C@H](Cc2cccc(C)c2)NC(=O)[C@H](CC(=O)O)NC(=O)[C@H](Cc2ccc(OCC(=O)O)cc2)NC(=O)[C@H](CN)NC(=O)CSC[C@@H](C(=O)N[C@@H](CCCCN)C(=O)NCCCCCCCCCCC(=O)O)NC(=O)[C@H](CCCN)NC(=O)[C@H](C(C)C)NC(=O)[C@H](CC2CCCCC2)NC(=O)[C@H](CCN)NC(=O)[C@@H](CC(C)C)NC(=O)[C@H](CCCN)NC1=O` [Compound 2640] ({CH2CO}-[Dap]Y(Carboxymethyl)D[Phe(3-Me)]V[Bip]I[Orn][dL][Dab][Cha]V[Orn]CK[Aun]-OH; thioether N-14), with 8.1 nM; and `Cc1cccc(C[C@@H]2NC(=O)[C@H](CC(=O)O)NC(=O)[C@H](Cc3ccc(OCC(=O)O)cc3)NC(=O)[C@H](CN)NC(=O)CSC[C@@H](C(=O)N[C@@H](CCCCN)C(=O)NCCCCCCCCCCC(=O)O)NC(=O)[C@H](CCCNC(N)=O)NC(=O)[C@H](C(C)C)NC(=O)[C@H](CC3CCCCC3)NC(=O)[C@H](CCN)NC(=O)[C@@H](CC(C)C)NC(=O)[C@H](CCCN)NC(=O)[C@H](CCCNC(N)=O)NC(=O)[C@H](Cc3ccc(-c4ccccc4)cc3)NC(=O)[C@H](C(C)C)NC2=O)c1` [Compound 2641] ({CH2CO}-[Dap]Y(Carboxymethyl)D[Phe(3-Me)]V[Bip][Cit][Orn][dL][Dab][Cha]V[Cit]CK[Aun]-OH; thioether N-14), with 27.7 nM; and `CC(C)C[C@H]1NC(=O)[C@H](CCCN)NC(=O)[C@H](CCCNC(N)=O)NC(=O)[C@H](Cc2ccc(-c3ccccc3)cc2)NC(=O)[C@H](C(C)C)NC(=O)[C@H](Cc2c[nH]c3ccccc23)NC(=O)[C@H](CC(=O)O)NC(=O)[C@H](Cc2ccc(OCC(=O)O)cc2)NC(=O)[C@H](CN)NC(=O)CSCC(C(=O)NCCOCCOCC(=O)NCCCCCCCCCCC(=O)O)NC(=O)[C@H](CCCCN)NC(=O)[C@H](C(C)C)NC(=O)[C@H](CC2CCCCC2)NC(=O)[C@H](CCN)NC1=O` (stereo partly drawn) [Compound 2643] ({CH2CO}-[Dap]Y(Carboxymethyl)DWV[Bip][Cit][Orn][dL][Dab][Cha]VK[ξC][AEEA][Aun]-OH; thioether N-14), with 7.2 nM. The figure for `CC[C@H](C)[C@@H]1NC(=O)[C@H](Cc2ccc(-c3ccccc3)cc2)NC(=O)[C@H](C(C)C)NC(=O)[C@H](Cc2c[nH]c3ccccc23)NC(=O)[C@H](CC(=O)O)NC(=O)[C@H](Cc2ccc(OCC(=O)O)cc2)NC(=O)[C@H](CN)NC(=O)CSCC(C(=O)NCCOCCOCC(=O)NCCCCCCCCCCC(=O)O)NC(=O)[C@H](CCCCN)NC(=O)[C@H](C(C)C)NC(=O)[C@H](CC2CCCCC2)NC(=O)[C@H](CCN)NC(=O)[C@@H](CC(C)C)NC(=O)[C@H](CCCN)NC1=O` (stereo partly drawn) [Compound 2644] ({CH2CO}-[Dap]Y(Carboxymethyl)DWV[Bip]I[Orn][dL][Dab][Cha]VK[ξC][AEEA][Aun]-OH; thioether N-14) is 9.4 nM.
